Results on six molecules are retold here after patent US9593149B2, “Amylin and calcitonin receptor agonist” (Novo Nordisk A/S, priority 2014, dated 2017).

A short description of this data set: Assay (IV) determination of solubility. Type of data set: physicochemical. Here is the method: Assay (IV)—Determination of Solubility
The mimylin peptide was dissolved in water at ˜500 nmol/ml and mixed 1:1 with a series of buffers (100 mM glycylglycine pH 3.0, 100 mM glycylglycine pH 4.0, 100 mM glycylglycine pH 5.0, 100 mM bistrispropane pH 6.0, 100 mM bistrispropane pH 6.5, 100 mM bistrispropane pH 7.0, 100 mM bistrispropane pH 7.5, 100 mM bistrispropane pH 8.0).

For orientation: solubility means the concentration that dissolves in the medium under given conditions. Read a high solubility as a readily soluble substance.

Molecules are shown by their SMILES. In brackets after ≈: the same amount, converted by molar mass. Numbered stars: 1 amine (or outer) side, 2 acyl side, 3 side chain; on linkers, the order of the positions; unused ones are H or OH. Peptide text beside a SMILES is read from it. * marks the point of attachment. C20 diacid = O=C(O)CCCCCCCCCCCCCCCCCCC(=O)*; C18 diacid = O=C(O)CCCCCCCCCCCCCCCCC(=O)*; γGlu = O=C(O)[C@H](CCC(=O)[*:2])N[*:1]

Turning to `CC(C)C[C@H](NC(=O)[C@H](C)NC(=O)[C@H](C)NC(=O)[C@@H](NC(=O)[C@H](CO)NC(=O)[C@H](CC(C)C)NC(=O)[C@H](CCC(=O)O)NC(=O)[C@H](CO)NC(=O)[C@H](C)NC(=O)CC[C@H](NC(=O)CCCCCCCCCCCCCCCCCCC(=O)O)C(=O)O)[C@@H](C)O)C(=O)NCC(=O)N[C@@H](CCCNC(=N)N)C(=O)N[C@@H](CC(C)C)C(=O)N[C@@H](CO)C(=O)N[C@@H](C)C(=O)N[C@@H](CCC(=O)O)C(=O)N[C@@H](CC(C)C)C(=O)N[C@@H](Cc1cnc[nH]1)C(=O)N[C@@H](CCC(=O)O)C(=O)N[C@@H](CC(C)C)C(=O)N[C@@H](C)C(=O)N[C@H](C(=O)N[C@@H](Cc1ccc(O)cc1)C(=O)N1CCC[C@H]1C(=O)N[C@@H](CCCNC(=N)N)C(=O)N[C@H](C(=O)N[C@@H](CCC(=O)O)C(=O)N[C@H](C(=O)NCC(=O)N[C@@H](CO)C(=O)NCC(=O)N[C@@H](CO)C(=O)N[C@@H](Cc1ccc(O)cc1)C(=O)O)[C@@H](C)O)[C@@H](C)O)[C@@H](C)O` [compound 88, [N-terminal(C20 diacid-gGlu), des1, 23Y, 30S, 31G, 33Y, C-terminal(−)]mimylin] ({C20 diacid-γGlu}-ASELSTAALGRLSAELHELATYPRTETGSGSY-OH), the Solubility result is recorded as “≧200 μM” (pH 3.0); “≧200 μM” (pH 6.0); “≧200 μM” (pH 6.5); “≧200 μM” (pH 7.0); “≧200 μM” (pH 7.5); “≧200 μM” (pH 8.0). Besides, the solubility at 18 h came out at 1 µM (≈ 3.79 µg/mL) (pH 4.0) and 6 µM (≈ 22.8 µg/mL) (pH 5.0).

For `CC(C)C[C@H](NC(=O)[C@H](C)NC(=O)[C@H](C)NC(=O)[C@@H](NC(=O)[C@H](Cc1cnc[nH]1)NC(=O)[C@H](CC(C)C)NC(=O)[C@H](CCC(=O)O)NC(=O)[C@H](CO)NC(=O)[C@H](C)NC(=O)[C@H](CCC(=O)O)NC(=O)CCCCCCCCCCCCCCCCC(=O)O)[C@@H](C)O)C(=O)NCC(=O)N[C@@H](CCCNC(=N)N)C(=O)N[C@@H](CC(C)C)C(=O)N[C@@H](CO)C(=O)N[C@@H](C)C(=O)N[C@@H](CCC(=O)O)C(=O)N[C@@H](CC(C)C)C(=O)N[C@@H](Cc1cnc[nH]1)C(=O)N[C@@H](CCC(=O)O)C(=O)N[C@@H](CC(C)C)C(=O)N[C@@H](C)C(=O)N[C@H](C(=O)N[C@@H](CC(C)C)C(=O)N1CCC[C@H]1C(=O)N[C@@H](CCCNC(=N)N)C(=O)N[C@H](C(=O)N[C@@H](CCC(=O)O)C(=O)N[C@H](C(=O)NCC(=O)N1CCC[C@H]1C(=O)N[C@@H](CCC(=O)O)C(=O)N[C@@H](CO)C(=O)N1CCC[C@H]1C(N)=O)[C@@H](C)O)[C@@H](C)O)[C@@H](C)O` [compound 16, [N-terminal(C18 diacid), 6H]mimylin] ({C18 diacid}-EASELHTAALGRLSAELHELATLPRTETGPESP-NH2), the Solubility result by setting is: (pH 3.0) “≧200 μM”; (pH 4.0) “≧200 μM”; (pH 5.0) “≧200 μM”; (pH 6.0) “≧200 μM”; (pH 6.5) “≧200 μM”; (pH 7.0) “≧200 μM”. The Solubility result by setting is: (pH 7.5) “≧200 μM”; (pH 8.0) “≧200 μM”.

On to `CC[C@H](C)[C@H](NC(=O)[C@H](CCC(=O)O)NC(=O)[C@H](C)NC(=O)[C@H](CO)NC(=O)[C@H](CC(C)C)NC(=O)[C@H](CCCNC(=N)N)NC(=O)CNC(=O)[C@H](CC(C)C)NC(=O)[C@H](C)NC(=O)[C@H](C)NC(=O)[C@@H](NC(=O)[C@H](CO)NC(=O)[C@H](CC(C)C)NC(=O)[C@H](CCC(=O)O)NC(=O)[C@H](CO)NC(=O)[C@H](C)NC(=O)[C@H](CCC(=O)O)NC(=O)CCCCCCCCCCCCCCCCC(=O)O)[C@@H](C)O)C(=O)N[C@@H](Cc1cnc[nH]1)C(=O)N[C@@H](CCC(=O)O)C(=O)N[C@@H](CC(C)C)C(=O)N[C@@H](C)C(=O)N[C@H](C(=O)N[C@@H](CC(C)C)C(=O)N1CCC[C@H]1C(=O)N[C@@H](CCCNC(=N)N)C(=O)N[C@H](C(=O)N[C@@H](CCC(=O)O)C(=O)N[C@H](C(=O)NCC(=O)N1CCC[C@H]1C(=O)N[C@@H](CCC(=O)O)C(=O)N[C@@H](CO)C(=O)N1CCC[C@H]1C(N)=O)[C@@H](C)O)[C@@H](C)O)[C@@H](C)O` [compound 11, [N-terminal(C18 diacid), 17I]mimylin] ({C18 diacid}-EASELSTAALGRLSAEIHELATLPRTETGPESP-NH2), for which the Solubility result by setting is: (pH 3.0) “≧200 μM”; (pH 4.0) “≧200 μM”; (pH 5.0) “≧200 μM”; (pH 6.0) “≧200 μM”; (pH 6.5) “≧200 μM”; (pH 7.0) “≧200 μM”. Besides, the Solubility entry by setting is: (pH 7.5) “≧200 μM”; (pH 8.0) “≧200 μM”.

With `CC[C@H](C)[C@H](NC(=O)[C@H](C)NC(=O)[C@@H](NC(=O)[C@H](CO)NC(=O)[C@H](CC(C)C)NC(=O)[C@H](CCC(=O)O)NC(=O)[C@H](CO)NC(=O)[C@H](C)NC(=O)[C@H](CCC(=O)O)NC(=O)CCCCCCCCCCCCCCCCC(=O)O)[C@@H](C)O)C(=O)N[C@@H](CC(C)C)C(=O)NCC(=O)N[C@@H](CCCNC(=N)N)C(=O)N[C@@H](CC(C)C)C(=O)N[C@@H](CO)C(=O)N[C@@H](C)C(=O)N[C@@H](CCC(=O)O)C(=O)N[C@@H](CC(C)C)C(=O)N[C@@H](Cc1cnc[nH]1)C(=O)N[C@@H](CCC(=O)O)C(=O)N[C@@H](CC(C)C)C(=O)N[C@@H](C)C(=O)N[C@H](C(=O)N[C@@H](CC(C)C)C(=O)N1CCC[C@H]1C(=O)N[C@@H](CCCNC(=N)N)C(=O)N[C@H](C(=O)N[C@@H](CCC(=O)O)C(=O)N[C@H](C(=O)NCC(=O)N1CCC[C@H]1C(=O)N[C@@H](CCC(=O)O)C(=O)N[C@@H](CO)C(=O)N1CCC[C@H]1C(N)=O)[C@@H](C)O)[C@@H](C)O)[C@@H](C)O` [compound 10, [N-terminal(C18 diacid), 9I]mimylin] ({C18 diacid}-EASELSTAILGRLSAELHELATLPRTETGPESP-NH2), the Solubility result runs as follows: (pH 3.0) “≧200 μM”; (pH 5.0) “≧200 μM”; (pH 6.0) “≧200 μM”; (pH 6.5) “≧200 μM”; (pH 7.0) “≧200 μM”; (pH 7.5) “≧200 μM”. The Solubility entry (pH 8.0) is “≧200 μM”. This molecule also displayed a solubility at 18 h (pH 4.0) of 182 µM (≈ 687 µg/mL).

Consider `CC(C)C[C@H](NC(=O)[C@H](CCCNC(=N)N)NC(=O)CNC(=O)[C@H](CC(C)C)NC(=O)[C@@H](NC(=O)[C@H](C)NC(=O)[C@@H](NC(=O)[C@H](CO)NC(=O)[C@@H](NC(=O)[C@H](CCC(=O)O)NC(=O)[C@H](CO)NC(=O)[C@H](C)NC(=O)[C@H](CCC(=O)O)NC(=O)CCCCCCCCCCCCCCCCC(=O)O)C(C)C)[C@@H](C)O)C(C)C)C(=O)N[C@@H](CO)C(=O)N[C@@H](C)C(=O)N[C@@H](CCC(=O)O)C(=O)N[C@@H](CC(C)C)C(=O)N[C@@H](Cc1cnc[nH]1)C(=O)N[C@@H](CCC(=O)O)C(=O)N[C@H](C(=O)N[C@@H](C)C(=O)N[C@H](C(=O)N[C@@H](CC(C)C)C(=O)N1CCC[C@H]1C(=O)N[C@@H](CCCNC(=N)N)C(=O)N[C@H](C(=O)N[C@@H](CCC(=O)O)C(=O)N[C@H](C(=O)NCC(=O)N1CCC[C@H]1C(=O)N[C@@H](CCC(=O)O)C(=O)N[C@@H](CO)C(=O)N1CCC[C@H]1C(N)=O)[C@@H](C)O)[C@@H](C)O)[C@@H](C)O)C(C)C` [compound 36, [N-terminal(C18 diacid), 5V, 9V, 20V]mimylin] ({C18 diacid}-EASEVSTAVLGRLSAELHEVATLPRTETGPESP-NH2), for which the solubility at 18 h by setting is: (pH 3.0) 117 µM (≈ 436 µg/mL); (pH 4.0) 9 µM (≈ 33.6 µg/mL); (pH 5.0) 10 µM (≈ 37.3 µg/mL). Besides, the Solubility result (pH 6.0) is “≧200 μM”; the Solubility entry (pH 6.5) is reported as “≧200 μM”; the Solubility result (pH 7.0) is “≧200 μM”; the Solubility entry (pH 7.5) is reported as “≧200 μM”; the Solubility entry (pH 8.0) is on record as “≧200 μM”.

As to `CC(C)C[C@H](NC(=O)[C@H](C)NC(=O)[C@@H](NC(=O)[C@H](CO)NC(=O)[C@H](CC(C)C)NC(=O)[C@H](CCC(=O)O)NC(=O)[C@H](CO)NC(=O)[C@H](C)NC(=O)[C@H](CCC(=O)O)NC(=O)CCCCCCCCCCCCCCCCC(=O)O)[C@@H](C)O)C(=O)N[C@@H](C)C(=O)NCC(=O)N[C@@H](CCCNC(=N)N)C(=O)N[C@@H](CC(C)C)C(=O)N[C@@H](CO)C(=O)N[C@@H](C)C(=O)N[C@@H](CCC(=O)O)C(=O)N[C@@H](CC(C)C)C(=O)N[C@@H](Cc1cnc[nH]1)C(=O)N[C@@H](CCC(=O)O)C(=O)N[C@@H](CC(C)C)C(=O)N[C@@H](C)C(=O)N[C@H](C(=O)N[C@@H](CC(C)C)C(=O)N1CCC[C@H]1C(=O)N[C@@H](CCCNC(=N)N)C(=O)N[C@H](C(=O)N[C@@H](CCC(=O)O)C(=O)N[C@H](C(=O)NCC(=O)N1CCC[C@H]1C(=O)N[C@@H](CCC(=O)O)C(=O)N[C@@H](CO)C(=O)N1CCC[C@H]1C(N)=O)[C@@H](C)O)[C@@H](C)O)[C@@H](C)O` [compound 27, [N-terminal(C18 diacid), 9L, 10A]mimylin] ({C18 diacid}-EASELSTALAGRLSAELHELATLPRTETGPESP-NH2), the Solubility entry is “≧200 μM” (pH 3.0); “≧200 μM” (pH 4.0); “≧200 μM” (pH 5.0); “≧200 μM” (pH 6.0); “≧200 μM” (pH 6.5); “≧200 μM” (pH 7.0). The Solubility entry was “≧200 μM” (pH 7.5) and “≧200 μM” (pH 8.0).
